From the supplement of paper PMC10307832

How the values were obtained:
Assay in all cases: relative viability (nuclei count vs DMSO), 5 days (fraction); higher = more cells survive
201T = test system: 201T
Method in brief: (§1)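 Medians of duplicate plates are given as relative viability. That measure is the nuclei count in treated wells divided by the count in vehicle wells. Counts were taken on 4× images of lung cancer cell lines in 1536-well plates, 5 days after pin-tool dosing the day after seeding with one drug alone or a fixed anchor-drug dose plus five library-drug doses (not always all listed) in √10 steps.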

A-427 = test system: A-427
Method in brief: as §1

COR-L23 = test system: COR-L23
Method in brief: as §1

ChaGo-K-1 = test system: ChaGo-K-1
Method in brief: as §1

HARA = test system: HARA
Method in brief: as §1

HCC-15 = test system: HCC-15
Method in brief: as §1

HCC-366 = test system: HCC-366
Method in brief: as §1

HCC-78 = test system: HCC-78
Method in brief: as §1

LCLC-103H = test system: LCLC-103H
Method in brief: as §1

LCLC-97TM1 = test system: LCLC-97TM1
Method in brief: as §1

LOU-NH91 = test system: LOU-NH91
Method in brief: as §1

NCI-H1650 = test system: NCI-H1650
Method in brief: as §1

NCI-H1734 = test system: NCI-H1734
Method in brief: as §1

NCI-H1993 = test system: NCI-H1993
Method in brief: as §1

NCI-H2009 = test system: NCI-H2009
Method in brief: as §1

NCI-H2023 = test system: NCI-H2023
Method in brief: as §1

NCI-H2126 = test system: NCI-H2126
Method in brief: as §1

NCI-H441 = test system: NCI-H441
Method in brief: as §1

NCI-H460 = test system: NCI-H460
Method in brief: as §1

NCI-H650 = test system: NCI-H650
Method in brief: as §1

RERF-LC-KJ = test system: RERF-LC-KJ
Method in brief: as §1

SW 1573 = test system: SW 1573
Method in brief: as §1

Structure (SMILES): O=C(O)CCCCC(CCSCc1ccccc1)SCc1ccccc1 (centres undefined) [CPI-613] + Cc1nc(Nc2ncc(C(=O)Nc3c(C)cccc3Cl)s2)cc(N2CCN(CCO)CC2)n1 [Dasatinib] (partner 0.075 µM)
- relative viability (201T; first compound 5 µM): 0.553
- relative viability (201T; first compound 15.81 µM): 0.527
- relative viability (201T; first compound 50 µM): 0.488
- relative viability (201T; first compound 158.11 µM): 0.352
- relative viability (201T; first compound 500 µM): 0.303
- relative viability (A-427; first compound 5 µM): 0.684
- relative viability (A-427; first compound 15.81 µM): 0.765
- relative viability (A-427; first compound 50 µM): 0.547
- relative viability (A-427; first compound 158.11 µM): 0.365
- relative viability (A-427; first compound 500 µM): 0.131
- relative viability (COR-L23; first compound 5 µM): 0.568
- relative viability (COR-L23; first compound 15.81 µM): 0.493
- relative viability (COR-L23; first compound 50 µM): 0.485
- relative viability (COR-L23; first compound 158.11 µM): 0.334
- relative viability (COR-L23; first compound 500 µM): 0.0383
- relative viability (ChaGo-K-1; first compound 5 µM): 0.583
- relative viability (ChaGo-K-1; first compound 15.81 µM): 0.594
- relative viability (ChaGo-K-1; first compound 50 µM): 0.594
- relative viability (ChaGo-K-1; first compound 158.11 µM): 0.336
- relative viability (ChaGo-K-1; first compound 500 µM): 0.146
- relative viability (HARA; first compound 15.81 µM): 0.23
- relative viability (HARA; first compound 50 µM): 0.309
- relative viability (HARA; first compound 158.11 µM): 0.149
- relative viability (HARA; first compound 500 µM): 0.0196
- relative viability (HCC-15; first compound 5 µM): 0.56
- relative viability (HCC-15; first compound 15.81 µM): 0.529
- relative viability (HCC-15; first compound 50 µM): 0.552
- relative viability (HCC-15; first compound 158.11 µM): 0.308
- relative viability (HCC-15; first compound 500 µM): 0.0395
- relative viability (HCC-366; first compound 5 µM): 0.604
- relative viability (HCC-366; first compound 15.81 µM): 0.606
- relative viability (HCC-366; first compound 50 µM): 0.798
- relative viability (HCC-366; first compound 158.11 µM): 0.309
- relative viability (HCC-366; first compound 500 µM): 0.0101
- relative viability (HCC-78; first compound 5 µM): 0.358
- relative viability (HCC-78; first compound 15.81 µM): 0.272
- relative viability (HCC-78; first compound 50 µM): 0.408
- relative viability (HCC-78; first compound 158.11 µM): 0.339
- relative viability (HCC-78; first compound 500 µM): 0.342
- relative viability (LCLC-103H; first compound 5 µM): 0.463
- relative viability (LCLC-103H; first compound 15.81 µM): 0.472
- relative viability (LCLC-103H; first compound 50 µM): 0.41
- relative viability (LCLC-103H; first compound 158.11 µM): 0.422
- relative viability (LCLC-103H; first compound 500 µM): 0.271
- relative viability (LCLC-97TM1; first compound 5 µM): 0.843
- relative viability (LCLC-97TM1; first compound 15.81 µM): 0.901
- relative viability (LCLC-97TM1; first compound 50 µM): 0.791
- relative viability (LCLC-97TM1; first compound 158.11 µM): 0.634
- relative viability (LCLC-97TM1; first compound 500 µM): 0.0334
- relative viability (LOU-NH91; first compound 5 µM): 0.564
- relative viability (LOU-NH91; first compound 15.81 µM): 0.475
- relative viability (LOU-NH91; first compound 50 µM): 0.532
- relative viability (LOU-NH91; first compound 158.11 µM): 0.481
- relative viability (LOU-NH91; first compound 500 µM): 0.499
- relative viability (NCI-H1650; first compound 5 µM): 0.353
- relative viability (NCI-H1650; first compound 15.81 µM): 0.285
- relative viability (NCI-H1650; first compound 50 µM): 0.312
- relative viability (NCI-H1650; first compound 158.11 µM): 0.082
- relative viability (NCI-H1650; first compound 500 µM): 0.0164
- relative viability (NCI-H1734; first compound 5 µM): 0.411
- relative viability (NCI-H1734; first compound 15.81 µM): 0.47
- relative viability (NCI-H1734; first compound 50 µM): 0.413
- relative viability (NCI-H1734; first compound 158.11 µM): 0.301
- relative viability (NCI-H1734; first compound 500 µM): 0.105
- relative viability (NCI-H1993; first compound 5 µM): 0.495
- relative viability (NCI-H1993; first compound 15.81 µM): 0.262
- relative viability (NCI-H1993; first compound 50 µM): 0.605
- relative viability (NCI-H1993; first compound 158.11 µM): 0.522
- relative viability (NCI-H1993; first compound 500 µM): 0.369
- relative viability (NCI-H2009; first compound 5 µM): 0.277
- relative viability (NCI-H2009; first compound 15.81 µM): 0.264
- relative viability (NCI-H2009; first compound 50 µM): 0.278
- relative viability (NCI-H2009; first compound 158.11 µM): 0.0869
- relative viability (NCI-H2009; first compound 500 µM): 0.029
- relative viability (NCI-H2023; first compound 5 µM): 0.552
- relative viability (NCI-H2023; first compound 15.81 µM): 0.457
- relative viability (NCI-H2023; first compound 50 µM): 0.483
- relative viability (NCI-H2023; first compound 158.11 µM): 0.0687
- relative viability (NCI-H2023; first compound 500 µM): 0.0087
- relative viability (NCI-H2126; first compound 5 µM): 0.561
- relative viability (NCI-H2126; first compound 15.81 µM): 0.58
- relative viability (NCI-H2126; first compound 50 µM): 0.605
- relative viability (NCI-H2126; first compound 158.11 µM): 0.331
- relative viability (NCI-H2126; first compound 500 µM): 0.107
- relative viability (NCI-H441; first compound 5 µM): 0.581
- relative viability (NCI-H441; first compound 15.81 µM): 0.52
- relative viability (NCI-H441; first compound 50 µM): 0.484
- relative viability (NCI-H441; first compound 158.11 µM): 0.3
- relative viability (NCI-H441; first compound 500 µM): 0.044
- relative viability (NCI-H460; first compound 5 µM): 0.54
- relative viability (NCI-H460; first compound 15.81 µM): 0.454
- relative viability (NCI-H460; first compound 50 µM): 0.572
- relative viability (NCI-H460; first compound 158.11 µM): 0.334
- relative viability (NCI-H460; first compound 500 µM): 0.317
- relative viability (NCI-H650; first compound 5 µM): 0.474
- relative viability (NCI-H650; first compound 15.81 µM): 0.366
- relative viability (NCI-H650; first compound 50 µM): 0.424
- relative viability (NCI-H650; first compound 158.11 µM): 0.345
- relative viability (NCI-H650; first compound 500 µM): 0.361
- relative viability (RERF-LC-KJ; first compound 5 µM): 0.784
- relative viability (RERF-LC-KJ; first compound 15.81 µM): 0.754
- relative viability (RERF-LC-KJ; first compound 50 µM): 0.766
- relative viability (RERF-LC-KJ; first compound 158.11 µM): 0.198
- relative viability (RERF-LC-KJ; first compound 500 µM): 0.123
- relative viability (SW 1573; first compound 5 µM): 0.452
- relative viability (SW 1573; first compound 15.81 µM): 0.503
- relative viability (SW 1573; first compound 50 µM): 0.467
- relative viability (SW 1573; first compound 158.11 µM): 0.118
- relative viability (SW 1573; first compound 500 µM): 0.0385
